Experimental data published in patent publication US8795222B2, “Device and method for treatment of surface infections with nitric oxide” (Pulmonox Technologies Corp., priority 2000, dated 2014).

Assays:
Mycobacterium = experiment: Bacteriocidal time study, 200 ppm gNO, saline suspension; assay type: cell-based, M. smegmatis
Description: (§1) Following the dose and time ranging studies, a series of experiments were performed to determine the time required to effectively induce a bacteriocidal effect with 200 parts per million of gNO, a concentration just above the dose used in the dose-ranging study, on a representative collection of drug resistant gram-positive and gram-negative strains of bacteria associated with clinical infection. A successful bacteriocidal effect was defined as a decrease in bacteria greater than 3 log10 cfu/ml. Further, C. albicans, Methicillin Resistant S. aureus (MRSA), a particularly resistant strain of P. aeruginosa from a cystic fibrosis patient, Group B Streptococcus, and M. smegmatis were also included to see if yeast, multi-drug resistant strains of bacteria, and actinomycetes have a similar response. The drug-resistant bacteria represent a variety of pathogens that contribute to both respiratory and wound infections.
(§2) For these experiments, saline was selected as a suspension media because it would not mask the direct effect of gNO as a bacteriocidal, whereas fully supplemented growth medium might introduce external variables (e.g., buffer or react with gNO). Other media might also provide metabolites and replenish nutrients that produce enzymes that protect bacteria from oxidative and nitrosative damage, thereby masking the effect of gNO. […] In saline, the colonies were static but remained viable. This is similar to the approach of Webert and Jean's use of animal models. Webert K E, et al (2000), Effects of inhaled nitric oxide in a rat model of Pseudomonas aeruginosa pneumonia, Crit. Care Med, 28(7):2397-2405 and Jean D, et al., (2002) Beneficial effects of nitric oxide inhalation on pulmonary bacterial clearance, Critical Care Medicine. 30(2):442-7.
The latent period was then followed by an abrupt death of all cells. Gram negative and gram positive bacteria, antibiotic resistant bacterial strains, yeast and mycobacteria were all susceptible to 200 ppm gNO. Of importance, is the observation that the two drug resistant bacteria strains were also susceptible. […]

[1] = system: all microorganisms tested; experiment: Bacteriocidal time study, 200 ppm gNO, saline suspension, all organisms together; assay type: cell-based
Description: as §1, §2
The latent period was then followed by an abrupt death of all cells. Gram negative and gram positive bacteria, antibiotic resistant bacterial strains, yeast and mycobacteria were all susceptible to 200 ppm gNO. Of importance, is the observation that the two drug resistant bacteria strains were also susceptible.

human endothelial cells = experiment: Tube formation in matrigel; assay type: cell-based; conditions: 200 ppm NO versus air, 8 hours or 24 hours
Description: Left panels at 8 hours of exposure. Right panels at 24 hours of exposure.

[2] = system: non-healing venous leg ulcer; experiment: Human case study, non-healing venous leg ulcer, topical gNO; assay type: in vivo
Excerpt: This case study involved a person with a 30 year history of severe venous disease, both deep and superficial, related to deep vein thrombophlebitis. Initially, while, the patient developed bilateral non-healing venous leg ulcers that were surgically treated. The surgical sites healed but the ulcers continued to recur. Initially, the patient presented with a small ulcer located just below the medial malleolus of the left ankle.
Arrangements were made to meet at the patient's home the following day to set up the equipment and for them to have a repeat training on the use of the treatment system. Training included use of the system as well as safety information on using the gas equipment.
Nitric oxide gas (ViaNOx-H, VIASYS Healthcare, Yorba Linda, Calif., USA) was applied to the lower extremity with use of a gas-diluting delivery system (CidaNOx Delivery System) designed specifically for the study (PulmoNOx Medical Inc., Edmonton, Alberta, Canada). This CidaNOx delivery system contains an internal air pump for dilution of the gNO and a flow control circuit to dilute the 800 parts per million (ppm) in the NO source cylinder down to the therapeutic level of 200 ppm. The total flow from the system was 1.0 L/min and included one-quarter of a liter per minute (250 ml/min) flow of gNO. Several internal pressure sensors assure the dilution flow is operational and monitor the system. The flow of nitric oxide was limited to 250 ml/min by a mechanically set pressure regulator and a mechanical flowmeter that have no external controls that could be changed by the patient. The concentration of nitric oxide delivered was assured by measurement of the CidaNOx output with a calibrated nitric oxide analyzer (AeroNOx, Pulmonox Medical Inc.) that is approved for monitoring inhaled NO in human patients.
The 200 ppm gNO from the CidaNOx Delivery System flowed out to a single patient use plastic boot that covered the patient's lower extremity. […] A secondary air outlet from the CidaNOx unit managed the inflation of the cuff. The patient connected the pump outlet to the cuff connector until it was inflated and then the connector was sealed closed with the provided clamp. […]
To explore the potential for wound bed preparation and accelerated wound healing from prolonged use, treatment regimen beyond three days was chosen and which was stopped at 14 days to evaluate the short-term effects and explore the possibility that the short-term effects would improve the longer-term outcome. […] The patient recorded the date, time, and duration of each treatment period on a data sheet, and any significant observations related to the wound, treatment, or equipment. The wound size (cm^2) was measured using digital photography and densitometry technique (Scion Image −4.02, Scion Corp., Frederick Md., USA). […]

[3] = average of the 13 bacteria listed above it, without Mycobacterium

## [N]=O [gNO, nitric oxide]
Mycobacterium
  LD100: 10 h
  Latent Period*: 7 h
Mycobacterium; time to −2.5 log10 cfu/ml
  −2.5 Log10: 9.2 hrs
[1]
  bacteriocidal effect: completely bacteriocidal effect
[1]; [3]
  LD100, Average: 4.77 h
  Latent Period*, Average: 2.77 h
  −2.5 Log10, Average: 3.82 hrs
[1]; every bacteria challenged
  reduction in cfu/ml: at least a three log10 reduction
Human endothelial cells
  tube formation: no significant difference
[2]; 26 weeks post NO discontinuation
  ulcer status: completely healed and reepithelialized
[2]; 200 ppm gNO nightly, day 3, 24 hours cumulative exposure, p=0.014
  wound size, day 3: Significant wound size reduction
[2]; 200 ppm gNO nightly, end of therapy at day 14
  reduction in wound area: approximately 75%
[2]; six weeks after the end of 14-day 200 ppm gNO treatment
  wound healed: about 90%
